In patent US9096632B2, “Modulator of activity of adenylate cyclase” (Public University Corporation Yokohama City University, priority 2010, dated 2015):

How the values were obtained:
[1] = tested on: rat embryo cultured cardiac myocytes; test: TUNEL staining of cardiac myocytes (isoproterenol-induced apoptosis); type: cell-based; conditions: 10^−5 M compound with isoproterenol 10^−5 M, 48 hours
Protocol: FIG. 10 TUNEL staining of cardiac myocytes. To a culture both of neonatal rat cardiac myocytes, isoproterenol (10^−5 M) either alone or in combination with vidarabine, V2E, V3E or VSE was added for stimulation (48 hours). Then, apoptosis positive cells were evaluated by TUNEL staining.
<TUNEL Staining of Cardiac Myocytes>
A culture broth of rat embryo cultured cardiac myocytes (pregnant Wistar rats were purchased from Nippon SLC) was stimulated (48 hours) with isoproterenol (10^−5 M) either alone or in combination with vidarabine, V2E, V3E or V5E (10^−5 M). Then, apoptosis positive cells were evaluated by TUNEL staining.

[2] = tested on: strychnine-induced tonic extensive convulsion and death; conditions: for time to death induced by strychnine convulsion: 150 mg/kg (0.525 mmol/kg) and 300 mg/kg (1.05 mmol/kg) i.p. 15 min before strychnine 1.5 mg/kg; for migration to the central nervous system: evaluated indirectly from strychnine antagonism
Protocol: FIG. 13 Effects on the central nervous system. […] Strychnine nitrate dissolved in physiological saline was administered in the cervicodorsal hypoderm of mice (C57BL/6N; Nippon SLC; male; 10-12 week old) at a dose of 1.5 mg/kg. Subsequently, the time to death through tonic extensive convulsion was measured so that the effect on migration to the central nervous system was evaluated indirectly. Vidarabine, V2E, V3E and V5E were dissolved or suspended in physiological saline and administered intraperitoneally 15 minutes before strychnine administration (n=4-10, means±SE) (FIG. 13). Death was judged to have occurred when the thoracic respiratory movement ceased.
The migration of vidarabine, V2E, V3E and V5E to the central nervous system was evaluated by antagonism against the tonic extensive convulsion and death initiated in mice by strychnine administration. Strychnine nitrate dissolved in physiological saline was administered in the cervicodorsal hypoderm of mice (C57BL/6N; Nippon SLC; male; 10-12 week old) at a dose of 1.5 mg/kg. Subsequently, the time to death through tonic extensive convulsion was measured. Vidarabine, V2E, V3E and V5E were dissolved or suspended in physiological saline and administered intraperitoneally 15 minutes before strychnine administration.

[3] = tested on: pacing-induced atrial fibrillation; test: Antiarrhythmic action: pacing-induced transient atrial fibrillation; type: in vivo, mouse; conditions: vidarabine 15 mg/kg/day, V2E, V3E, V5E 19.8 mg/kg/day, osmotic mini-pump; vs DMSO alone
Protocol: FIG. 14 Antiarrhythmic (atrial fibrillation inhibition) action. To healthy wild type mice (C57BL/6N), vidarabine (15 mg/kg/day), V2E, V3E or V5E (19.8 mg/kg/day) (all of which are dissolved in DMSO) or DMSO alone was administered with an osmotic mini-pump (Alzet 2001). Subsequently, voltage stimuli of 2.5 mA were applied to the mice for 60 seconds at intervals of 30 milliseconds with a transesophageal catheter (atrial tachypacing; Circ Res 97, 62-69, 2005) to induce transient atrial fibrillation. The duration of atrial fibration until the induced transient atrial fibrillation converted to a normal sinus rhythm was measured (n=4-8, means±SE).
After mice were inhalationally anesthetized with isoflurane, an electrode catheter (Millar: Model EPR800; size 1.1 F; length 4.5 cm) connected to an electrocardiogram amp for the purpose of recording intracardiac electrocardiogram was slowly inserted through the oral cavity into the esophagus, and fixed at a site where maximum P wave was recorded. The thus fixed electrode catheter was connected to an electrostimulator carefully enough to avoid any movement of its position. Thereafter, body surface electrogram was recorded by II lead. Subsequently, voltage stimuli of 2.5 mA were applied to mice for 60 seconds at intervals of 30 milliseconds to thereby induce transient atrial fibrillation. The time period during which the following phenomena can be confirmed from body surface electrogram was regarded as the duration of atrial P wave disappears from the baseline and the R-R intervals are not regular but produce arrhythmic pulse.
To healthy WT (C57BL/6N), each of vidarabine (15 mg/kg/day), V2E, V3E and V5E (19.8 mg/kg/day) (all of which were dissolved in DMSO) or DMSO alone was administered with an osmotic mini-pump (Alzet 2001). Subsequently, atrial fibrillation was induced under the above-described conditions, and the duration of atrial fibrillation until the induced atrial fibrillation converted to a normal sinus rhythm was measured (FIG. 14). This experiment was completed after confirming that the normal sinus rhythm was lasting for at least 5 minutes and that there was no recurrence of atrial fibrillation. For information, the maximum dose of vidarabine approved for use in the treatment of herpes in humans is 15 mg/kg/day for 10 days.

[4] = tested on: adenylyl cyclase activity in the heart; test: Membrane adenylyl cyclase assay, WT heart membrane, forskolin-stimulated; type: biochemical, mouse; conditions: 10 μM; wild-type mouse; heart vs lung
Description: FIG. 3 Inhibitory effects of individual vidarabine derivatives on adenylyl cyclase activity in the striatum, heart and lung. With adenylyl cyclase activity in the presence of […] but in the absence of inhibitors being taken as 100, the reductions in adenylyl cyclase activity upon treatment with various inhibitors at the concentrations indicated on the horizontal axis are shown (n=4, means±S.E.).
(§1) <Membrane Adenylyl Cyclase Assay>
(§2) Striatal, cardiac and pulmonary tissues were removed from WT (C57BL) (Charles River Laboratories Japan, Inc.) and AC5KO (Circ. Res. 93: 364-371, 2003), both of which were 12-15 weeks of age after birth, and individual membrane protein fractions were prepared therefrom. The resultant membrane preparations were incubated with a reaction mixture (20 mM HEPES, pH 8, 5 mM MgCl2, 0.5 mM EDTA, pH 8, 0.1 mM ATP, 1 mM phospho creatine, 8 U/mL creatine phosphor kinase, 200 μM IBMX) at 30° C. in the presence of forskolin (an activator of adenylyl cyclase) (50 μM, Sigma Cat. No. F6886) and various compounds, to thereby allow production of cAMP. In this assay, striatum- or lung-derived membrane preparations were used in an amount of 1 μg, and heart-derived membrane preparation was used in an amount of 2 μg. 15 minutes (striatum and lung) or 30 minutes (heart) after its start, the reaction was terminated by adding trichloroacetate (TCA) solution to give a final concentration of 5%. Then, the protein was precipitated by centrifugation (13,500×g, 10 min).
(§3) In both membrane adenylyl cyclase assay and cAMP accumulation assay, the amount of cAMP contained in TCA solution was determined by radioimmunoassay using […].

[5] = tested on: adenylyl cyclase activity in the striatum (type 5 adenylyl cyclase); test: Membrane adenylyl cyclase assay, WT striatal membrane, forskolin-stimulated; type: biochemical, mouse; conditions: 10 μM; WT; striatum vs lung
Protocol: FIG. 2 Inhibitory effects of various compounds on adenylyl cyclase activity in mouse striatum. The striatum is part of the brain. Here, it is known that type 5 adenylyl cyclase occupies almost all of the enzyme activity. […] Relative values are shown with adenylyl cyclase activity in the presence of 50 μM forskolin but in the absence of inhibitors being taken as 100 (n=4, means±S.E.).
as §1, §2, §3

CN(C)CC(=O)OC1C(O)C(CO)OC1n1cnc2c(N)ncnc21 (stereo not drawn) [V2E, 2-O—(N,N-Dimethylglycyl)Vidarabine]
inhibitory effect on isoproterenol stimulation-induced apoptosis (TUNEL positive cells) [1]: comparable to the effect of vidarabine
time to death induced by strychnine convulsion [2]: did not prolong
migration to the central nervous system [2]: extremely low
time for pacing-induced atrial fibrillation to convert to a normal sinus rhythm [3]: significantly shortened
inhibition of adenylyl cyclase activity in heart relative to lung (tissue specificity) [4]: about 2.6 fold
inhibition of adenylyl cyclase activity in striatum relative to lung (tissue specificity) [5]: about 3.0 fold

CN(C)CC(=O)OC1C(CO)OC(n2cnc3c(N)ncnc32)C1O (stereo not drawn) [V3E, 3-O—(N,N-Dimethylglycyl)Vidarabine]
inhibitory effect on isoproterenol stimulation-induced apoptosis (TUNEL positive cells) [1]: comparable to the effect of vidarabine
time to death induced by strychnine convulsion [2]: did not prolong
migration to the central nervous system [2]: extremely low
time for pacing-induced atrial fibrillation to convert to a normal sinus rhythm [3]: significantly shortened

CN(C)CC(=O)OCC1OC(n2cnc3c(N)ncnc32)C(O)C1O (stereo not drawn) [V5E, 5-O—(N,N-Dimethylglycyl)Vidarabine]
inhibitory effect on isoproterenol stimulation-induced apoptosis (TUNEL positive cells) [1]: comparable to the effect of vidarabine
time to death induced by strychnine convulsion [2]: did not prolong
migration to the central nervous system [2]: extremely low
time for pacing-induced atrial fibrillation to convert to a normal sinus rhythm [3]: significantly shortened

Nc1ncnc2c1ncn2[C@@H]1O[C@H](CO)[C@@H](O)[C@@H]1O [vidarabine, reference compound]
time to death induced by strychnine convulsion [2]: significantly prolonged
time for pacing-induced atrial fibrillation to convert to a normal sinus rhythm [3]: significantly shortened
inhibition of adenylyl cyclase activity in heart relative to lung (tissue specificity) [4]: about 2.4 fold
inhibition of adenylyl cyclase activity in striatum relative to lung (tissue specificity) [5]: about 2.8 fold
